Values of other authors as cited in PMC7285658 (Chemical communications (Cambridge, England), 2020).

Molecular target: RSK1/2
Details: selective inhibitor of RSK1/2

Ki: ~1000 nM
SMILES: CC(=O)O[C@@H]1[C@@H](OC(C)=O)[C@@H](O)[C@H](Oc2c(-c3ccc(O)cc3)oc3cc(O)cc(O)c3c2=O)O[C@H]1C [SL0101]
